Results: patent US20100035848A1, “THERAPY FOR DISORDERS OF THE PROXIMAL DIGESTIVE TRACT” (priority 2008, published 2010)
Where “and” joins values, the source holds several entries; their conditions need not be identical. Identical values can stand only once.

What was measured:
[1] = tested on: NF-κB dependent transcription; test: In vivo imaging of basal NF-κB dependent transcription in NF-κB::Luc reporter mice; set-up: species or system mouse; conditions: male NF-κB::Luc mice, 4 hours, FIG. 2
Protocol: GL1001 was tested for in vivo anti-inflammatory activity by examining its effects on basal levels of NF-κB dependent transcription in mice engineered in the germline with a construct containing an NF-κB enhancer linked to a luciferase gene (i.e., NF-κB::Luc mice), such that this NE-κB reporter construct is present in all cells of the mice.
More particularly, transgenic NF-κB::Luc mice were generated using three NF-κB response elements from the Igκ light chain promoter fused to a firefly luciferase gene as described by Carlsen et al. (2002) J. Immunol. 168:1441-1446. Pronuclear microinjection of purified construct DNA was used to generate transgenic founders in the C57BL/6 XCBA/J background. Founders were subsequently back-crossed to the C57BL/6 albino background. […] Signal data were also quantitated and archived using the Living Image® software. Photons of light were quantitated using an oval region of interest (ROI) of varying sizes depending on the procedure, as described further below.
To test for in vivo effects of GL1001 on basal levels of NF-κB dependent transcription, male NF-κB::Luc mice were subjected to quantitative in vivo imaging of the abdominal area (using a fixed ROT of 2.76×3.7 cm) as described above, immediately before, and at 2, […]

[2] = tested on: activator protein-1 (AP-1); test: In vivo basal reporter luciferase expression in AP-1::Luc mice; set-up: species or system mouse; conditions: data not shown
ACE2 [3] = target: T1, ACE2 (Rattus norvegicus, UniProt Q5EGZ1); test: Acute diclofenac-induced gastric toxicity in rats: ACE2 activity in stomach tissue; assay type: in vivo; conditions: Group C: GL1001 oral before diclofenac 50 mg/kg; vehicle-diclofenac Group B 880 ± 39; p<0.0001
T1 construct: from tissue; host or cells: rat stomach (excluding forestomach) homogenate
T1 sequence (Q5EGZ1 18-805): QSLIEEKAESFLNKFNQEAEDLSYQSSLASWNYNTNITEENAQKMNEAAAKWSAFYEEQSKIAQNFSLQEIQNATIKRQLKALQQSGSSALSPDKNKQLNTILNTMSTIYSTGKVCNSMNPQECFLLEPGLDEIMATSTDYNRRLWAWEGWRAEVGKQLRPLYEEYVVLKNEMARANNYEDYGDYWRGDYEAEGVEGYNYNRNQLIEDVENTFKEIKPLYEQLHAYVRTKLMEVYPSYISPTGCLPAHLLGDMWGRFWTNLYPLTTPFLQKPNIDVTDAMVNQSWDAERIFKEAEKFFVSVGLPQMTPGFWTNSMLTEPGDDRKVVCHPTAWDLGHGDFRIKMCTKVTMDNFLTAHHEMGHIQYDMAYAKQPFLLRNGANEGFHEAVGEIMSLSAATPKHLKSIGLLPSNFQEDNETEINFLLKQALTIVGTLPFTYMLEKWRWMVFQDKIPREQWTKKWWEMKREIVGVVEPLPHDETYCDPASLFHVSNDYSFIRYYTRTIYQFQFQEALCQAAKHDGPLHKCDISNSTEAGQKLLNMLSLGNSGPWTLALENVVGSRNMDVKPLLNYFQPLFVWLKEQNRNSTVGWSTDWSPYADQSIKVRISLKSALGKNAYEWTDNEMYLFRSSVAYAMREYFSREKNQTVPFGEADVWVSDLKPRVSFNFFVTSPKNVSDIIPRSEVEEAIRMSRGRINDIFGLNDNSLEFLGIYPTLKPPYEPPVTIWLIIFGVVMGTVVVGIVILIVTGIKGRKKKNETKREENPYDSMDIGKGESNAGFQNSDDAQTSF
Protocol: Male Wistar rats were deprived of food but not water for 16 hours prior to oral administration of GL1001 90 mg/kg, incubated for 30 minutes and then given oral diclofenac 50 mg/kg. Each group consisted of 6 rats. As a negative control, one group received vehicle pretreatment, and then received vehicle instead of diclofenac. A positive control group received PGE2 100 μg/kg orally, 30 minutes prior to administration of diclofenac. All treatments were administered by oral gavage.
(§1) Three hours after diclofenac treatment, all animals were sacrificed and stomachs were removed and imaged to determine the severity of gastric damage. Additionally, stomach tissue samples were taken to assess disease activity and pharmacodynamic effects. Gastric damage scores were determined from photographic images (Ma & Wallace (2003) Am. J. Physiol. Gastrointest. Liver Physiol. 279; 341-346). Removed stomachs were opened along the greater curvature, pinned out on a wax block, and photographed along a 25 mm ruler reference with a digital 35 mm camera. The lesion area was then determined using enlarged images and computer software (www.scioncorp.co/pages/scion_image_windows.htm) that allows superimposed drawing of the perimeter of a wound and calculation of the area based on the ruler reference. Stomach samples (excluding forestomach) were used for measurements of PGE2 concentration, MPO activity and ACE2 activity. […] Concentration of PGE2 from stomach tissue samples was performed as described by Souza et al. (2003), supra, and quantification was obtained by LC-MS. […] Last, the extent of inhibition of ACE2 activity was determined to establish whether GL1001 was effective in inhibiting its ACE2 target in stomach tissues. The ACE2 activity assay is similar to the method of Vickers et al. (2002) J. Biol. Chem. 277:14838-14843, wherein purified recombinant ACE2 (100 pM) and a quenched fluorescent substrate (100-150 μM APK (7-methoxycoumarin-4-yl)acetyl-Ala-Pro-Lys (2,4-dinitrophenyl)) are used in end-point fluorescence reactions (excitation 320 nm, emission 405 nm). […]
Data are expressed as means with standard errors. […]

ACE2 [4] = target: T1, ACE2; test: Stomach tissue homogenates spiked with excess GL1001, ACE2 fluorescence assay; assay type: biochemical
Protocol: as §1, with “tissues.” for “tissues. The ACE2 activity assay is similar to the method of Vickers et al. (2002) J. Biol. Chem. 277:14838-14843, wherein purified recombinant ACE2 (100 pM) and a quenched fluorescent substrate (100-150 μM APK (7-methoxycoumarin-4-yl)acetyl-Ala-Pro-Lys (2,4-dinitrophenyl)) are used in end-point fluorescence reactions (excitation 320 nm, emission 405 nm).”

CC(C)C[C@H](N[C@@H](Cc1cncn1Cc1cc(Cl)cc(Cl)c1)C(=O)O)C(=O)O [GL1001, (S,S)-2-[1-carboxy-2-[3-(3,5-dichlorobenzyl)-3H-imidazol-4-yl]-ethylamino]-4-methylpentanoic acid]
inhibition of basal in vivo levels of NF-κB dependent transcription in abdominal ROI ([1]; 300 mg/kg s.c., p<0.01): over 40%
inhibition of basal in vivo levels of NF-κB dependent transcription in abdominal ROI ([1]; both lower doses s.c.): lesser but still significant extents
effect on basal in vivo levels of reporter luciferase expression [2]: no significant effect
Gastric ACE2 activity (ACE2 [3]): 436 pmol/mg and 436 ± 20 pmol/mg
further inhibition of ACE2 on spiking (ACE2 [4]; tissue samples of Group C (dosed in vivo with GL1001) spiked with excess GL1001): no further inhibition
decrease in the fluorescence signal (ACE2 specific activity) (ACE2 [4]; tissue samples of Groups A and B spiked with vast excess of GL1001 (>IC90)): 40-50%
